Measured values published in ChEMBL document CHEMBL3507680, “University of Dundee, Gates Library screen for HepG2 cell viability”.

Experiment: Human HepG2 cell viability assay in 384 well format
Type: toxicity, cell-based
Parameters: dose 125 nL, time 70.5 hour; cytotoxicity at 70.5 h: concentration not given beside the values
Settings: HepG2 cells, read-out: Inhibition

SMILES | cytotoxicity at 70.5 h [%]
Cc1cc(Cc2ccccc2F)cc(C2CCCNC2)n1 (centres undefined) | -1.65
Cc1nccc(N2CCCC2CCNS(C)(=O)=O)n1 (centres undefined) | -2.97
O=C([C@@H]1C[C@@H]2CCN(C3CCOCC3)C[C@@H]2O1)N1CCCC1 | -5.63
CN1C(=O)CC(C(=O)O)C12CCN(Cc1ccc(Cl)c(F)c1)CC2 (centres undefined) | 9.92
Cc1csc(CCNc2ccc(C#N)cc2F)n1 | -10.7
NC(=O)C1CCCN1CCCc1ccc(Cl)cc1 (centres undefined) | -5.15
O=C(C1CC1)N(Cc1ccc2cc[nH]c2c1)C1CC1 | -22.5
NC(=O)c1cc(-c2cccc(C(=O)O)c2)cs1 | -15.4
Cn1c(=O)[nH]c(=O)n2c(CC(=O)NCc3ccccc3)cnc12 | -12.3
Cc1noc(C)c1CN1CCO[C@H]2CN(Cc3cccnc3)C[C@H]21 | -4.34
CC(C)CCn1ccc(NC2CCSC2)n1 (centres undefined) | -8.47
Cc1cc(C(=O)N[C@@H]2CCNC[C@H]2O)ccc1Cl | -6.34
COC1CCN(C(=O)C2CCCC2)CC(=O)N(C)c2ccccc21 (centres undefined) | 22.2
CO[C@H]1CN(C(=O)c2nc(-c3ccccc3)[nH]c2C)CC[C@H]1N | 25.8
CCS(=O)(=O)NCc1cc(Br)c(OC)c(OC)c1 | -8.56
COCCC(=O)N1CCn2cc(CN3CCN(C)CC3)nc2C1 | 0.542
CCN(c1ccc(C(=O)N2CCCC2c2cnn(C)c2)cn1)C(C)C (centres undefined) | 16.2
CCc1cccc(C)c1NC(=O)c1ccccc1N(C)S(C)(=O)=O | 26.1
Cc1[nH]ccc1C(=O)N1CCC2(CC1)c1nc[nH]c1CCN2S(C)(=O)=O | -4.51
Cc1ccsc1CN(Cc1nc2c(cnn2C)c(=O)[nH]1)C(C)C | 2.45
CC(C)(O)CN1CC(C)(C)CN(C(=O)CCc2ccccc2)CC1=O | -1.35
COc1cc(N2CCC3(CCN(Cc4cccnc4)C3=O)C2)ncn1 (centres undefined) | -4.34
COCC1CN(Cc2cccnc2OC)Cc2cnn(C)c21 (centres undefined) | 6.07

SMILES | cytotoxicity at 70.5 h [%]
c1ccc(OCc2cscn2)c(CNC2CCc3ncnn3C2)c1 (centres undefined) | -4.78
Cc1cc(N2CCN(C(=O)c3cn(C)c4ccccc34)CC2)nc(C)n1 | 20.3
Cc1nc(C)n(CC2CCCN(CCc3ccccc3)C2)n1 (centres undefined) | 4.16
Cc1occc1C(=O)N1CCC2(CC1)CC(OCc1ccccn1)CO2 (centres undefined) | 11.9
Cn1cnc2c1CCN(CC(O)c1ccc(S(C)(=O)=O)cc1)C2 (centres undefined) | -8.26
Cc1ccc(NC(=O)NCCCc2n[nH]c(N)c2C#N)cc1 | -3.1
O=C(C1CCCC1)N1CCC(C2CCN(Cc3ccc(Cl)cc3)C2)CC1 (centres undefined) | -2.34
Cc1csc([C@H]2C[C@@H]3CCN(C(=O)c4cnccn4)C[C@H]3O2)n1 | -3.11
CCc1nc(CN(C)CC2CCN(CC(C)O)CC2)no1 (centres undefined) | -4.55
O=C(c1cc2c([nH]c1=O)CCC2)N1CCCC1c1cccnc1 (centres undefined) | 14.6
Cc1nc(N2CCCC2)nc2c1CCN(C(=O)CN(C)C)CC2 | -3.18
Cn1cccc1C(=O)NC(C)(C(N)=O)c1cccc(C(F)(F)F)c1 (centres undefined) | -55.1
Cc1noc(C(C)N2CCN(CCN3CCCC3=O)CC2)n1 (centres undefined) | -4.25
Cc1cc(C2CCCN2C(=O)NCc2ccccn2)on1 (centres undefined) | -16.2
CCC(=O)NCC(=O)NCC1(c2c(F)cccc2F)CCCC1 | -4.06
Cc1nc(C2CCCN2CC(=O)NCCOc2ccccc2)no1 (centres undefined) | 0.566
CC(C)NC(=O)N1CCC2(CC(=O)N(c3cccc(C#N)c3)C2)C1 (centres undefined) | 2.44
Cc1nnc2n1CC(CNCc1nc(-c3cccs3)no1)CC2 (centres undefined) | 18.6
CN(Cc1ccccc1)C1(C(=O)NC(C)(C)CO)Cc2ccccc2C1 | 2.66
CN(C)C(=O)N1CC[C@@H](O)[C@@H]1Cc1cnn(C)c1 | -1.6
COCC(c1cccc(C(F)(F)F)c1)N(C)C(=O)c1ccccn1 (centres undefined) | -4.66
CC(C)C(=O)N1CCN(C(=O)CCc2nnc(-c3ccccc3)o2)CC1 | -21.2
CC(=O)c1cc(C(=O)N2CCC(CC(C)C)C2)c(=O)[nH]c1C (centres undefined) | -12.6

SMILES | cytotoxicity at 70.5 h [%]
COc1cc(CNC(=O)Nc2cc(C(F)(F)F)c[nH]c2=O)ccn1 | 1.69
CCC(Nc1nccc(C2CCCC2)n1)c1ccncc1 (centres undefined) | 3.69
c1ccc(COC[C@H]2CC[C@H]3[C@H](CCN3Cc3cccnc3)O2)nc1 | 9.23
Cc1cc(C(=O)N2CCN(Cn3cc(Cl)cn3)CC2)on1 | -8.38
O=C(c1ccc[nH]1)N1CCN(CC2CCOc3ccccc3C2)CC1 (centres undefined) | 16.4
Cn1cc(CNCCNc2ncc(Cl)cc2Cl)cn1 | -4.79
N#Cc1ncn(CCS(=O)(=O)c2ccc(Cl)cc2)n1 | 2.53
OC(COc1ccccc1)CN1CCN(c2nccs2)CC1 (centres undefined) | 0.888
c1ccn2c(C3CCCN3Cc3nc(C4CC4)no3)nnc2c1 (centres undefined) | -21.8
Cc1cnc(CN(C)Cc2cccc(OC(F)(F)F)c2)cn1 | -3.82
CCO[C@H]1CO[C@@]2(CCCN(C(=O)c3ccc(OC)c(F)c3)C2)C1 | 2.45
Cc1nn(C)c2nc(N(Cc3nccs3)C3CC3)sc12 | -15.9
Cc1nn(C)c2c(=O)n(Cc3ccc(F)cc3)nnc12 | -7.56
O=C(NC1CCCCNC1=O)c1cc2ccccc2[nH]c1=O (centres undefined) | -15.7
Cc1cccc2c1ccn2CC(=O)O | 6.19
CS(=O)(=O)Nc1ccn(Cc2cccc(Cl)c2)n1 | -4.43
COc1ccc(C)cc1CCNS(=O)(=O)c1ccc2c(c1)CCC(=O)N2 | -18.5
COCCN1C(=O)CC[C@@H]2[C@H]1CCN2Cc1cccc(C#N)c1 | -11.2
COC(=O)CNC(=O)c1ccc(OC2CCN(S(C)(=O)=O)CC2)c(Cl)c1 | -4.88
CC(C)N(C)Cc1ncn2c1CN(CC(=O)N(C)C)CCC2 | 8.76
CN(C)[C@@H]1C[C@@H](CO)N(C(=O)Nc2cccc(F)c2F)C1 | 19.1
Cc1nc(C)n(C2CCCN(C(=O)c3c(C)nn4cccnc34)C2)n1 (centres undefined) | 20.7
O=C(COc1ccccc1F)NCCC(O)c1ccoc1 (centres undefined) | -4.07

SMILES | cytotoxicity at 70.5 h [%]
CC(C)n1cnc2c1C(C(=O)NCCO)N(Cc1ccccc1)CC2 (centres undefined) | -8.21
COc1cccc(C(O)Cn2ncc3ncccc3c2=O)c1 (centres undefined) | -10.1
CC(C)NC(=O)N1C[C@H]2C[C@H](C(=O)N3CCCC3)[C@@H](C1)O2 | 21.9
Cc1cc(CN(C)C(=O)CN2CC3(CCNCC3)OC2=O)no1 | -15.9
Cn1ccnc1-c1cccc(NC(=O)NCCCO)c1 | 1.83
O=C1NC(c2ccccc2)=N[C@@]12CC[C@@H]1CN(Cc3ccncc3)C[C@@H]12 | -13.9
CN(C)c1cnnc(N2CCN(C(=O)Cc3ccccc3)CC2)c1 | -8
O=C(O)CC(NC(=O)CCCc1cccs1)c1ccc(F)cc1 (centres undefined) | -2.27
CSCC1CCCN(c2ncnc3oc(C)nc23)C1 (centres undefined) | -9.81
Cc1noc(C)c1CN1CC[C@H]2OCC[C@@H](C(=O)N3CCCO3)[C@H]2C1 | -2.47
O=c1nc(SCc2ccncc2)c2c(n1CCO)CCC2 | -0.878
Fc1ccc2nc([C@H]3CCNC3)[nH]c2c1 | -0.112
CCCNC(=O)Cn1cc(OC)c(=O)cc1CSc1nc(C)cc(C)n1 | -13.1
Cc1cc(-n2cncn2)n2ncnc2n1 | -2.11
COc1ccccc1CC(=O)NC(CC(=O)O)c1ccc(C)cc1 (centres undefined) | -6.19
Cn1ncc2c(=O)[nH]c(CN3CCc4ccccc4C3)nc21 | -15.9
Cc1ccc(C(CNCc2cccn2C)N2CCOCC2)s1 (centres undefined) | -4.6
CN(Cc1cn2c(n1)CN(Cc1ccc(F)cc1)CC2)Cc1ccco1 | -8.36
NC1CCN(C(=O)c2cnc(Cc3c(Cl)cccc3Cl)nc2O)C1 (centres undefined) | 13.3
CN1CCN(C(=O)NC2CCCC2)Cc2cccnc21 | -4.32
O=C(NC1CCCC1)c1nc2c(o1)CN(C(=O)CCO)C2 | -4.91
N#Cc1ccc(CS(=O)(=O)NC(=O)c2ccc(C#N)cc2)cc1 | -14.8
CCOCC(=O)N1Cc2nnn(C)c2C(COCc2ccccn2)C1 (centres undefined) | 9.65

SMILES | cytotoxicity at 70.5 h [%]
O=C(O)c1c(-c2cccnc2)ncc2c1CCN(Cc1ccccn1)C2 | -8.57
Cc1cncc(C2CCN(C(=O)CCc3ccnn3C)CC2)n1 | 23.6
O=C(NCCn1ccc(-c2ccccn2)n1)C1CC1 | -4.52
Cc1nc(N)cc(C2CCN2CCOc2ccccc2)n1 (centres undefined) | -6.55
CC(=O)N[C@@H]1CN(C(=O)c2csc(C(C)C)n2)C[C@H]1C(C)C | -7.11
CC(C)N(C)CC(=O)N1CCCC(n2ccnc2)C1 (centres undefined) | 1.97
O=C(NCC1CCCO1)c1cc(Sc2ncccn2)ccn1 (centres undefined) | 24.8
Nc1nc2c(c(N3CCCC3)n1)CCN(Cc1ccccn1)CC2 | 8.7
CC(C)CCCC1CN(C(=O)c2cnc[nH]2)CCO1 (centres undefined) | -11.4
CN(C)Cc1cncc2c1CCN(Cc1cnn(C)c1)C2 | -0.555
Cc1cccnc1NC(=O)CNC(=O)c1ccccc1Cl | -14.5
CC(C)c1nc(CN(C)C2CCN(CCNS(C)(=O)=O)C2)no1 (centres undefined) | 32.3
CC(C)N(C)Cc1ncn2c1CN(C(=O)C1CCCO1)CCC2 (centres undefined) | -0.921
CC(C(=O)O)N1CC2(CCC1=O)CCN(C/C=C/c1ccccc1)CC2 (centres undefined) | -7.03
CN(C)C(=O)N1CCN(CCn2nc3ccccn3c2=O)CC1 | -2.81
CC(C)(C)c1nc(CN2CCN(C(=O)c3cnccn3)CC2)cs1 | -1.47
COC(=O)c1cccc(-c2c[nH]c(C)n2)c1 | -7.21
O=C(NCC1(O)CCSC1)c1ccn(-c2ccccc2F)n1 (centres undefined) | -15.6
CN(C)[C@@H]1CN(C(=O)CCc2ccccc2)[C@@H]2CCCO[C@H]12 | -3.71
Cc1cnn(CC2CCCN2C(=O)c2ccc3[nH]c(=O)[nH]c3c2)c1 (centres undefined) | -1.55
COCC(=O)Nc1ccnn1-c1ccc(Cl)cc1 | 3.64
CCN(CC)Cc1ccc(C(=O)NC2CCc3cc(F)ccc32)o1 (centres undefined) | -19
